A short description of the series: solvent given as SMILES.
Where [1] appears, read: in O=P(c1ccccc1)(c1ccccc1)c1ccccc1Oc1ccccc1P(=O)(c1ccccc1)c1ccccc1.

Several values for one entry are separate records, joined by “and”; a condition that tells them apart may be missing. Equal entries are not always repeated.

For the compound `CN(C)c1ccc(C2=Cc3cccc[n+]3[B-](F)(F)O2)cc1`, the emission maximum is reported as 499 nm (in C1CCOC1); 486 nm (in C1COCCO1); 447 nm (in CC1CCCCC1); 528 nm (in CC#N); 499 nm (in CCOC(C)=O); 477 nm (in CCOCC). Also, the emission maximum was 530 nm (in CN(C)C=O), 517 nm (in CO), 514 nm (in COC(C)=O) and 490 nm (in ClC(Cl)Cl).
For the compound `CC1(C)c2ccccc2N(c2ccc(-c3ncccn3)cc2)c2ccccc21`, the emission maximum (in Cc1ccccc1) turned out to be 448 nm and the emission maximum (in O=P(c1ccccc1)(c1ccccc1)c1ccc2oc3ccc(P(=O)(c4ccccc4)c4ccccc4)cc3c2c1) is 457 nm.
For the setting “in c1cc(-c2cccc(-n3c4ccccc4c4ccccc43)c2)cc(-n2c3ccccc3c3ccccc32)c1”, `c1ccc(-c2nc(-c3ccccc3)nc(-c3ccc(-c4ccc5c(c4)[Si](c4ccccc4)(c4ccccc4)c4cc(-c6ccc(-c7nc(-c8ccccc8)nc(-c8ccccc8)n7)cc6)ccc4N5c4ccccc4)cc3)n2)cc1` showed an emission maximum of 459 nm.
In turn, `CCCC(=O)c1c(OCOC)c(OCOC)c(C(=O)CCC)c2c1OCO2` gave an emission maximum (in CC#N) of 503 nm.
On to `O=[N+]([O-])c1ccc(-n2c3ccccc3c3c2c2ccccc2n3-c2ccccc2)cc1`, for which, where the note is “in Cc1ccccc1”, the emission maximum worked out at 660 nm.
For `C(=C\c1ccc(N(c2ccccc2)c2ccccc2)cc1)/c1ccc(-c2cc(-c3ccccn3)nc(-c3ccccn3)c2)cc1`, the emission maximum is, setting by setting: (in C1CCOC1) 502 nm; (in C1COCCO1) 466 nm; (in CC#N) 560 nm; (in CCO) 556 nm; (in ClCCl) 519 nm.
As to `Cc1nn(-c2ccccc2)c2c1c(=O)oc1ccc(-n3c4ccccc4c4ccccc43)cc12`, the emission maximum (in Cc1ccccc1) stood at 412 nm.
Take `CCCCCCCCCCCCn1cccc1/C=C/c1ccc(OCCCC)c2c(/C=C/c3cccn3CCCCCCCCCCCC)ccc(OCCCC)c12`: under “in Cc1ccccc1”, the emission maximum is recorded as 490 nm.
Compound `O=C1c2ccc3c4ccc5c6c(ccc(c7ccc(c2c37)C(=O)N1c1ccc(Cl)cc1)c64)C(=O)N(c1ccc(Cl)cc1)C5=O` showed an emission maximum (in CN(C)C=O) of 534 nm.
Turning to `CCOC(=O)c1cc(C(=O)OCC)c2cccc(OC)c2n1`, the emission maximum (in CCO) came out at 526 nm.
For the compound `COC(=O)[C@@H]1C(=O)Oc2ccccc2[C@H]1c1c[nH]c2ccccc12`, the emission maximum (in CS(C)=O) worked out at 376 nm.
Consider `O=c1oc2ccccc2cc1-c1nc2ccccc2o1`, for which the emission maximum was determined as 444 nm (in C1CCOC1); 443 nm (in C1COCCO1); 438 nm (in CC1CCCCC1); 443 nm (in CC#N); 444 nm (in CC(C)=O); 445 nm (in CC(C)CO). The emission maximum is, setting by setting: (in CC(C)O) 444 nm; (in CCOC(C)=O) 443 nm; (in CN(C)C=O) 445 nm; (in CO) 440 nm; (in CS(C)=O) 453 nm; (in Cc1ccccc1) 445 nm. In addition, the emission maximum reads like this: (in ClC(Cl)(Cl)Cl) 444 nm; (in ClC(Cl)Cl) 443 nm; (in OCCO) 447 nm.
For the compound `COc1ccc(-c2cc(-c3ccc(C(F)(F)F)cc3)nn2C)cc1`, where the note is “in ClCCl”, the emission maximum is listed as 367 nm.
In turn, `Oc1ccc2ccccc2c1/C=N/CC/N=C/c1c(O)ccc2ccccc12` gave an emission maximum (in CC#N) of 466 nm.
On to `CCN1C(=CC=Cc2n(CC)c3cc(Cl)c(Cl)cc3[n+]2CC)N(CC)c2cc(Cl)c(Cl)cc21`, for which the emission maximum was 529 nm (in CC#N); 535 nm (in CCCCCCO); 534 nm (in CCCCO); 532 nm (in CCCO); 530 nm (in CCO); 528 nm (in CO). For the same compound, the emission maximum by setting is: (in CS(C)=O) 536 nm; (in OCC(O)CO) 535 nm; (in OCCO) 532 nm.
As to `Cc1c(C)n2c(COC(=O)CNC(=O)OC(C)(C)C)c(C)c(=O)n2c1=O`, the emission maximum (in CCO) is reported as 459 nm.
On to `O=c1c2cc3[nH]c4c(S(=O)(=O)O)cc(S(=O)(=O)O)cc4c(=O)c3cc2[nH]c2c(S(=O)(=O)O)cc(S(=O)(=O)O)cc12`, for which the emission maximum (in O) is reported as 550 nm.
Consider `COC(=O)c1cc(=O)n(C)c2cc(-c3ccc4c(c3)OCO4)sc12`, for which the emission maximum amounted to 482 nm (in CC#N) and 474 nm (in ClCCl).
As to `O=Cc1ccc(C#CC(C#Cc2ccc(C=O)s2)=Cc2ccc(C=C(C#Cc3ccc(C=O)s3)C#Cc3ccc(C=O)s3)s2)s1`, the emission maximum (in ClC(Cl)Cl) worked out at 595 nm.
The compound `Cc1cccn2c1cc1c3ccccc3nc(-c3ccco3)c12` showed an emission maximum (in CS(C)=O) of 502 nm.
Consider `Cc1c(COC(=O)c2ccccc2Cl)n2c(OCC(=O)c3ccccc3Cl)c(C)c(=O)n2c1=O`, for which the emission maximum (in CCO) was 459 nm.
Take `Cc1c(C2=[N+]3C(=Cc4c(C)c5ccccc5n4[B-]3(F)F)c3ccccc32)[nH]c2ccccc12`: the emission maximum was found to be 646 nm (in C1CCOC1); 637 nm (in CC#N); 644 nm (in CCCCCC); 643 nm (in CO); 656 nm (in Cc1ccccc1); 648 nm (in ClCCl).
In the case of `CNc1cc2nc3cc(Cl)c(Cl)cc3nc2cc1NC`, the emission maximum (in CCO) came out at 541 nm.
In the case of `COc1ccc(C#Cc2nc3ccccc3nc2-c2csc(OC)c2)cc1`, the emission maximum (in ClCCl) stood at 508 nm.
On to `COc1ccc(C2=CC(c3ccccc3)=[N+]3C2=Nc2c(-c4ccc(OC)cc4)cc(-c4ccccc4)n2[B-]3(F)F)cc1`, for which the emission maximum by setting is: (in Cc1ccccc1) 697 nm; (in ClC(Cl)Cl) 695 nm.
As to `CCOc1ccc2c(-c3nc(-c4cccc(C)c4)no3)cc(=O)oc2c1`, the emission maximum is, setting by setting: (in CCO) 465 nm; (in ClC(Cl)Cl) 456 nm.
The compound `COc1ccc(C2=[N+]3C(=Nc4c(-c5cc(OC)c(OC)c(OC)c5)c(-c5ccc(C(C)(C)C)cc5)c(-c5ccc(OC)cc5)n4[B-]3(F)F)C(c3cc(OC)c(OC)c(OC)c3)=C2c2ccc(C(C)(C)C)cc2)cc1` returned an emission maximum (in Cc1ccccc1) of 726 nm.
`N#Cc1cc2ccc([O-])cc2oc1=O` returned an emission maximum (in O) of 450 nm.
The compound `CC(C)(C)NC(=O)c1ccc(-c2ccccc2)c2ccc3c4ccccc4c4ccccc4c3c12` showed an emission maximum (in ClCCl) of 413 nm.
The compound `Oc1cccc(-c2nc(-c3ccccc3)c(-c3ccccc3)[nH]2)c1` gave an emission maximum (in CO) of 390 nm.
In turn, `CCCCCCCCCCOc1ccc(C#Cc2cc3c(C#Cc4ccc(OCCCCCCCCCC)cc4)c(C#Cc4ccc(OCCCCCCCCCC)cc4)c4cc(C#Cc5ccc(OCCCCCCCCCC)cc5)cc5c(C#Cc6ccc(OCCCCCCCCCC)cc6)c(C#Cc6ccc(OCCCCCCCCCC)cc6)c(c2)c3c45)cc1` displayed an emission maximum (in ClCCl) of 466 nm.
Turning to `COc1ccccc1-c1nc2c([nH]1)C1=CC(=O)S[C@]1(C)[C@@]1(C)SC(=O)C=C21`, the emission maximum (in CC#N) is 505 nm.
Regarding `COOCc1noc(-c2ccccc2)c1Cl`, for the setting “in C1CCCCC1”, the emission maximum amounted to 345 nm.
`CCCCCCCCn1c(=O)c2cc3c(C#Cc4ccc(N(c5ccccc5)c5ccccc5)cc4)c4cc5c(=O)n(CCCCCCCC)c(=O)c5cc4c(C#Cc4ccc(N(c5ccccc5)c5ccccc5)cc4)c3cc2c1=O` registered an emission maximum (in ClC(Cl)Cl) of 641 nm.
For the compound `Cc1c(-c2nc(-c3ccccc3)nc(-c3ccccc3)n2)ccc(-n2c3ccccc3c3cc4c(cc32)C2c3ccccc3C4c3ccccc32)c1C`, the emission maximum by setting is: (in Cc1ccccc1) 427 nm; under setting [1], 435 nm.
As to `CN(C)c1ccc(-c2cc(=O)c3ccccc3o2)cc1`, the emission maximum (in C1CCCCC1) was determined as 382.35 nm; the emission maximum (in CC#N) was 474 nm and 462.75 nm; the emission maximum (in CCOC(C)=O) is 442 nm and 433.73 nm; the emission maximum (in Cc1ccccc1) came to 417 nm.
Regarding `Cn1c(-c2ccc(-c3nc(-c4ccccc4)c(-c4ccccc4)n3C)cc2)nc(-c2ccccc2)c1-c1ccccc1`, the emission maximum (in CC#N) is 440 nm and 417 nm.
In turn, `CC1(C)C(/C=C/C2=C(c3ccc(C(=O)O)cc3)C(=C/C=C3/N(CCCCS(=O)(=O)[O-])c4ccccc4C3(C)C)/CC2)=[N+](CCCCS(=O)(=O)[O-])c2ccccc21` returned an emission maximum (in CO) of 816 nm.
As to `CC(C)(C)c1cc2ccc3cc(C(C)(C)C)cc4c(N(c5ccccc5)c5ccccc5)cc(c1)c2c34`, the emission maximum was found to be 455.01 nm (in C1CCOC1), 483.88 nm (in CC#N) and 415 nm (in CCCCCC).
As for `CN1/C(=C/C=C(/C=C/c2sc3ccccc3[n+]2C)c2cccc(C(F)(F)F)c2)Sc2ccccc21`, the emission maximum is, setting by setting: (in CCO) 665 nm; (in CO) 661 nm; (in CS(C)=O) 665 nm; (in O) 659 nm.
Consider `CCCCCCCCCC1(CCCCCCCCC)c2cc(C#Cc3ccc(/C=C/c4ccc(N(CCCCCCCC)CCCCCCCC)cc4)cc3)ccc2-c2ccc(C#Cc3ccc(/C=C/c4ccc(N(CCCCCCCC)CCCCCCCC)cc4)cc3)cc21`, for which the emission maximum (in Cc1ccccc1) is listed as 464 nm.
Consider `Cc1cc(-n2c3ccccc3c3cc4c(cc32)C2c3ccccc3C4c3ccccc32)ccc1-c1nc(-c2ccccc2)nc(-c2ccccc2)n1`, for which the emission maximum by setting is: (in Cc1ccccc1) 429 nm; under setting [1], 444 nm.
As to `Cc1ccc2c(c1)nc1c(=O)n(C)c(=O)nc-1n2C`, the emission maximum (in CC#N) amounted to 532 nm.
Regarding `Cc1cc(-c2nc(-c3ccccc3)nc(-c3ccccc3)n2)ccc1N1c2ccccc2C2(c3ccccc3-c3ccccc32)c2ccccc21`, for the setting “in Cc1ccccc1”, the emission maximum came to 481 nm.
On the same count and under the same terms, to `Cc1cc(-c2nc(-c3ccccc3)nc(-c3ccccc3)n2)ccc1N1c2ccccc2CCc2ccccc21` belongs 481.75 nm.
In turn, `CC1=CC(C)=[N+]2C1=C(c1ccc(I)cc1)c1c(C)cc(C)n1[B-]21Oc2ccc3ccccc3c2-c2c(ccc3ccccc23)O1` yielded an emission maximum (in ClC(Cl)Cl) of 516.4 nm.
